# Reference: patent US20250002453A1, “PHARMACEUTICALLY ACCEPTABLE SALT OF ELIGLUSTAT AND CRYSTAL FORM THEREOF” (SPEROGENIX (SHANGHAI) MEDTECH CO., LTD., priority 2021, published 2025)
# Experiment: Deliquescence / moisture uptake observed under room humidity or during XRPD testing
# Type: physicochemical
# Conditions: under room humidity conditions
# Method: Free crystalline form A and 0.5 equivalent of L-malic acid were suspended and stirred in EtOAc for 1 day at room temperature to obtain the sample. The solid was separated by centrifugation and dried under vacuum to obtain crystalline form A of malate.
# Free crystalline form A and 0.5 equivalent of L-malic acid were suspended and stirred in IPAc/n-heptane (1:5, v:v) for 1 day at room temperature and 2 days at 40° C., and then the solid was separated by centrifugation. Upon vacuum drying, crystalline form B of malate was obtained.
smiles,measurement,value
CCCCCCCC(=O)NC(CN1CCCC1)C(O)c1ccc2c(c1)OCCO2.O=C(O)CC(O)C(=O)O (stereo not shown) [Crystalline form A of malate],deliquescence / moisture absorption,deliquesced significantly
